In patent publication US5824647A, “Chemotactic wound healing peptides” (priority 1995, dated 1998):

How the values were obtained:
[1] = test system: fibroblasts, monocytes and neutrophils; assay: Chemotaxis assays expressed as Migration Index (cell type not separated); type: cell-based, human; settings: cells migrating in response to peptide divided by cells migrating in response to medium; positive chemotactic control
Description: The peptides of the invention induce chemotaxis of fibroblasts and inflammatory cells (neutrophils and monocytes/macro-phages) in in vitro assays. Assays for measuring chemotaxis induced by the peptides can utilize either fibroblasts or monocytes. The following sets forth a representative assay for measuring fibroblast chemotaxis induced by the peptides of the invention:
Peptides 280-293, 296-322, 328-354, 358-382 (SEQ ID NO. 16), 366-387 (SEQ ID NO. 11), 364-378 (SEQ ID NO. 6) and 368-374 (SEQ ID NO. 1) of Table I, whose sequences correspond to the designated regions of TGF-β1 were tested in chemotaxis assays for the ability to induce migration of fibroblasts, monocytes and neutrophils. The peptides were added to the lower compartments of modified Boyden chambers at the indicated concentration.
Because the peptides were tested in different experiments, migration was expressed as "Migration Index" which is obtained by dividing the number of cells migrating in response to medium into the number of cells migrating in response to each peptide. A positive chemotactic control, peptide 340-391 gave migration indices between 7-11.

[2] = test system: infant foreskin fibroblasts; assay: Fibroblast proliferation, [3H]thymidine incorporation; type: cell-based; settings: [3H]thymidine pulse after 72 h, harvest 24 h later; positive control human recombinant TGF-β1 (25 ng/ml)
Method: The peptides of the invention were also found to induce fibroblast proliferation in vitro. Fibroblast proliferation was measured in low passaged (fewer than 8) fibroblast cultures. Fibroblasts were added at low density (20,000 cells/well) to Falcon 3047 multiwell plates in maintenance medium. After incubation at 37° C. in a humidified atmosphere containing 5% CO2 for 16 h, the medium was removed from each well and replaced with 450 μl serum-free maintenance medium containing 0.1% BSA and 50 μl aliquots of sterilized test sample. Each sample being tested for mitogenic activity was added to triplicate wells. […] After 15 min. of repeated agitation of each multi-well plate, a 250 μl aliquot from each well was transferred to scintillation vials containing Bio-Safe II (Research Products International Corp., Mt. Prospect, Ill.), cooled for 4 h, and counted in a scintillation counter. Fibroblast proliferation was expressed as "Mean CPM±SEM" per well of the replicates. […]
Fibroblast proliferation experiments in response to the 7-mer peptides (peptides 368-374) were carried out as generally described above. […] All cultures were performed in triplicate and results were expressed as the means of triplicate values as counts per minute (CPM) per well. […]

[3] = test system: infant foreskin fibroblasts; assay: Collagen production by fibroblasts (modified Peterofsky-Diegelman assay); type: cell-based, human; settings: [3H]proline incorporation into collagenase-sensitive protein

Row | Substance | Migration Index [1] | fibroblast proliferation / growth (in words) [2] | collagen production by fibroblasts (in words) [3] | collagen production by fibroblasts (in words) ([3]; listed as VYYVGRKK)
1 | 340-391: synthetic peptide corresponding to sequence 340-391 of TGF-β1; positive chemotactic control (VLALYNQHNPGASAAPCCVPQALEPLPIVYYVGRKPKVEQLSNMIVRSCKCS; printed: Val Leu Ala Leu Tyr Asn Gln His Asn Pro Gly Ala Ser Ala Ala Pro Cys Cys Val Pro Gln Ala Leu Glu Pro Leu Pro Ile Val Tyr Tyr Val Gly Arg Lys Pro Lys Val Glu Gln Leu Ser Asn Met Ile Val Arg Ser Cys Lys Cys Ser) [Peptide 340-391] | 7-11 | – | – | –
2 | VYYVGRK [Peptide 368-374, 7-mer corresponding to amino acids 368-374 of TGF-β1] | – | most effective in inducing fibroblast growth, exceeding that obtained with human recombinant TGF-β1 | being the most potent | stimulated collagen production to some degree
